The record followed here is PMC12362615, “Design, Synthesis, and Cellular Characterization of a New Class of IPMK Kinase Inhibitors” (Journal of Medicinal Chemistry, 2025).

Read-outs that look alike come from different tables or passages of the source.

The term IC50 denotes the concentration needed to halve the response being measured.

In data set [1] the target is T1, purified recombinant human IPMK kinase domain (Homo sapiens, UniProt Q8NFU5).
T1 sequence (Q8NFU5 with tags, fused parts or gaps): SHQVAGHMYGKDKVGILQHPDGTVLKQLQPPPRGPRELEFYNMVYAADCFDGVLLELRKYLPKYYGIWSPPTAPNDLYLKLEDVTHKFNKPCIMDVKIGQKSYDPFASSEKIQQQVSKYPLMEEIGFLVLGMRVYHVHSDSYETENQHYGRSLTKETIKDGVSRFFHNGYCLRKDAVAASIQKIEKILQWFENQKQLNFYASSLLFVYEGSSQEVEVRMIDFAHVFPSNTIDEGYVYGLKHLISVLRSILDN
The data set can be described thus: IPMK IC50 determination, Kinase-Glo assay. It is filed as biochemical. An excerpt:
(§1) These assay conditions were optimized with respect to reaction time, IPMK enzyme concentration, and IP3 concentration to determine the IC50 values for these ATP-competitive compounds.
On the technique in general: Kinase-Glo measures the ATP left after a reaction by luminescence.

The subject of data set [2] is purified recombinant human IPMK kinase domain. Kind of data set: IPMK IC50 determination, Kinase-Glo assay. It is filed as biochemical. The note with it: compared to compound 3.
Text: as §1

A short description of a further data set: Solubility. It is filed as physicochemical.
Data set [3] has as its target T2, purified recombinant human IP6K2 kinase domain (Homo sapiens, UniProt Q9UHH9).
T2 sequence (Q9UHH9 1-426): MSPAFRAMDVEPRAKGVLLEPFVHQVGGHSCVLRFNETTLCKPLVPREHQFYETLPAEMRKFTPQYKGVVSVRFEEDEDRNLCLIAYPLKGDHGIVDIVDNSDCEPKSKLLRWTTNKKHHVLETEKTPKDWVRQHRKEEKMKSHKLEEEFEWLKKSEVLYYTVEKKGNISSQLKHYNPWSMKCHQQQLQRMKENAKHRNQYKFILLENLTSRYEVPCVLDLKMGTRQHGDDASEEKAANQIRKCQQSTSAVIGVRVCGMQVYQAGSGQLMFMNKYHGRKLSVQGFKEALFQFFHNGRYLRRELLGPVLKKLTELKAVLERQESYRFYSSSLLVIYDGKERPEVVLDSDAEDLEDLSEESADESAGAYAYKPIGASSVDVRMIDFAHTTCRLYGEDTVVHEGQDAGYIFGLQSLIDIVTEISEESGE
The data set can be described thus: IP6K2 IC50 determination, malachite green Pi release assay. It is filed as biochemical. The method, then: IP6K2 IC50 values were determined using the purified recombinant human IP6K2 kinase domain expressed in a 384-well clear polystyrene plate (VWR 82051-264). This human IP6K2 kinase domain (100 nM) was used at 37 °C in 50 μL reaction mixtures containing 5.0 μM human Dipp1, 50 mM Tris (pH 6.9), 10 mM MgCl2, 0.02% Triton X-100, 25 μM InsP6, and 50 μM ATP for 30 min. Pi release was determined with a malachite green colorimetric assay. Reactions were quenched by the addition of 12.5 μL of phosphate detection reagent (MAK3071KT, Sigma-Aldrich). Pi release was quantified from the absorbance at 620 nm by using appropriate standards.

On to `Cc1cc(C)cc(-c2onc3ccc(-c4nnn[nH]4)cc23)c1` [Compound 4, 3-(3,5-Dimethylphenyl)-5-(1H-tetrazol-5-yl)benzo[c]isoxazole], for which the IC50 is 25 ± 1.6 nM in data set [1] (Kinase-Glo assay, 12.5 μM Ins(1,4,5)P3, 10 μM ATP, read-out: IC50 toward recombinant human IPMK); 24.7 ± 1.6 nM in data set [1] (supplementary csv, read-out: IPMK IC50); 113 ± 69.5 nM in data set [3] (supplementary csv). Besides, the “improved potency toward IPMK compared to compound 3” value in data set [2] is given as 9 fold. Moreover, in the data set “Solubility”, the “solubility compared to compound 3” value is recorded as “improved”. Also, the IP6K2/IPMK in data set [3] (Table S1, ratio of IC50 values) is recorded as 4.6.
